What was measured:
Purinergic P2Y = assay: Eurofins binding screen; conditions: 10 µM
Serotonin 5-HT1B = assay: Eurofins binding screen; conditions: 10 µM
Adenosine A2A = Adenosine A2A (Homo sapiens, UniProt P29274); assay: Eurofins binding screen
Serotonin 5-HT6 = Serotonin 5-HT6 (Homo sapiens, UniProt P50406); assay: Eurofins binding screen
Serotonin 5-HT2A = Serotonin 5-HT2A (Homo sapiens, UniProt P28223); assay: Eurofins binding screen
Chemokines CXCR2 (IL-8B) = Chemokines CXCR2 (IL-8B) (Homo sapiens, UniProt P25025); assay: Eurofins binding screen
PAC1 - PACAP = PAC1 - PACAP (Homo sapiens, UniProt P41586); assay: Eurofins binding screen
[1] = molecular target: PBR (peripheral benzodiazepine receptor) (Rattus norvegicus, UniProt P16257); assay: Eurofins binding screen; conditions: for Percent inhibition of control specific binding: 10 µM
Glutamate PCP = assay: Eurofins binding screen; conditions: 10 µM
Serotonin 5-HT2C = Serotonin 5-HT2C (Homo sapiens, UniProt P28335); assay: Eurofins binding screen
Angiotensin-II AT2 = Angiotensin-II AT2 (Homo sapiens, UniProt P50052); assay: Eurofins binding screen
NOP (ORL1) = NOP (ORL1) (Homo sapiens, UniProt P41146); assay: Eurofins binding screen
Dopamine D2S = Dopamine D2S (Homo sapiens, UniProt P14416); assay: Eurofins binding screen
Serotonin 5-HT2B = Serotonin 5-HT2B (Homo sapiens, UniProt P41595); assay: Eurofins binding screen
Potassium channels KV = assay: Eurofins binding screen; conditions: 10 µM
Muscarinic M3 = Muscarinic M3 (Homo sapiens, UniProt P20309); assay: Eurofins binding screen
Opioid kappa (KOP) = assay: Eurofins binding screen; conditions: 10 µM
Vasopressin V1a = Vasopressin V1a (Homo sapiens, UniProt P37288); assay: Eurofins binding screen
Neuropeptide Y Y2 = Neuropeptide Y Y2 (Homo sapiens, UniProt P49146); assay: Eurofins binding screen
[2] = molecular target: Cholecystokinin CCK1 (CCKA) (Homo sapiens, UniProt P32238); assay: Eurofins binding screen
mice = assay: Depression-related behavior, sucrose preference test, repeated treatment; format: in vivo; conditions: mice, sucrose preference test, highest dose tested 15 mg/kg
From the text: Anxiety-like behaviors were studied in the elevated plus maze (EPM), a rodent model used to evaluate the putative anxiogenic or anxiolytic effects of pharmacological compounds. Depression-related behaviors were studied using the sucrose preference test as a model of anhedonia, one of the cardinal symptoms of depression.
The sucrose preference test was done in the home cage. Two identical bottles, one containing water and the other containing a 2% sucrose solution, were placed in the hopper of each cage. The mice had unlimited access to water and sucrose solutions during the active phase—the dark phase of the light/dark cycle that started at 20:00. The volume of water and of sucrose solution consumed was measured over two […] intervals, the first between 19:00 and 20:30 and the second between 20:30 and 22:00. At each timepoint, the bottles were weighed, and the intake volume was calculated by subtracting the […].
The EPM assessment was done on day 26, and the sucrose preference test was done on day 28.

[3] = system: Sodium channels Na+-site2; assay: Eurofins binding screen; conditions: 10 µM
Muscarinic M2 = Muscarinic M2 (Homo sapiens, UniProt P08172); assay: Eurofins binding screen
Endothelin ETB = Endothelin ETB (Homo sapiens, UniProt P24530); assay: Eurofins binding screen
Neurokinin NK1 = Neurokinin NK1 (Homo sapiens, UniProt P25103); assay: Eurofins binding screen
[4] = molecular target: Calcitonin gene-related peptide CGRP (Homo sapiens, UniProt O60894+Q16602); assay: Eurofins binding screen
Adrenergic beta2 = Adrenergic beta2 (Homo sapiens, UniProt P07550); assay: Eurofins binding screen
Adrenergic beta1 = Adrenergic beta1 (Homo sapiens, UniProt P08588); assay: Eurofins binding screen
Serotonin 5-HT3 = Serotonin 5-HT3 (Homo sapiens, UniProt P46098); assay: Eurofins binding screen
[5] = molecular target: Serotonin transporter SET (Homo sapiens, UniProt P31645); assay: Eurofins binding screen
Adrenergic alpha1 = assay: Eurofins binding screen; conditions: 10 µM
BZD (central) = assay: Eurofins binding screen; conditions: 10 µM
Muscarinic M4 = Muscarinic M4 (Homo sapiens, UniProt P08173); assay: Eurofins binding screen
Adrenergic alpha2 = assay: Eurofins binding screen; conditions: 10 µM
Kinase PDGF = assay: Eurofins binding screen; conditions: 10 µM
Dopamine D4.4 = Dopamine D4.4 (Homo sapiens, UniProt P21917); assay: Eurofins binding screen
Neurokinin NK2 = Neurokinin NK2 (Homo sapiens, UniProt P21452); assay: Eurofins binding screen
Prostanoid EP2 = Prostanoid EP2 (Homo sapiens, UniProt P43116); assay: Eurofins binding screen
GABA = assay: Eurofins binding screen; conditions: 10 µM
[6] = read-out: Percent inhibition of control specific binding

PBR (peripheral benzodiazepine receptor), sequence (P16257 whole entry): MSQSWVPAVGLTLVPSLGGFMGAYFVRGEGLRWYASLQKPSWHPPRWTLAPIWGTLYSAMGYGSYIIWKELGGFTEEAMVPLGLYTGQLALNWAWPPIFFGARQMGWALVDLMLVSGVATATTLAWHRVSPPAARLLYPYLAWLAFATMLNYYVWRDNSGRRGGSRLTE
Endothelin ETB, sequence (P24530 27-442): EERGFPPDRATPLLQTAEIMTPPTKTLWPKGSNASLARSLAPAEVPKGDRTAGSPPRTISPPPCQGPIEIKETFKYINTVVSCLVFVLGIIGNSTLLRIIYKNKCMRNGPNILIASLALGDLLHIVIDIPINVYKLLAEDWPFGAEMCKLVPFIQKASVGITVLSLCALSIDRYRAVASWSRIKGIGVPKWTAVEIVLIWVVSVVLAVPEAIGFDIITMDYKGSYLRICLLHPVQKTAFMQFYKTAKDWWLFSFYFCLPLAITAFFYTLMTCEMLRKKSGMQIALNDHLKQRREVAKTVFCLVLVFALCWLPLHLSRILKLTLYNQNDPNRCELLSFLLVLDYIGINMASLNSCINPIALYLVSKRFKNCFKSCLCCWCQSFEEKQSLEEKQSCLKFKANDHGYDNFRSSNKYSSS
Neurokinin NK1, sequence (P25103 whole entry): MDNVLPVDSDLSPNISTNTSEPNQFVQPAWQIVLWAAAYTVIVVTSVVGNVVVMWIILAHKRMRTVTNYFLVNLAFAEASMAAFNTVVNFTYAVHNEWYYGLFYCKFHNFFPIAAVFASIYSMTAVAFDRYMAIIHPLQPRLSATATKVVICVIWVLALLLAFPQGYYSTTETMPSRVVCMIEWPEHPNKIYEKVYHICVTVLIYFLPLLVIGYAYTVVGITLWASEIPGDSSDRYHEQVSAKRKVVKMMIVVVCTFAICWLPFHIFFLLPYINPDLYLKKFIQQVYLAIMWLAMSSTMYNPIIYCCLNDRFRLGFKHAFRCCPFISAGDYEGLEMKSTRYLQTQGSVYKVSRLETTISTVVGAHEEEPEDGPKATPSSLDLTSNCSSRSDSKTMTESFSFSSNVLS
PAC1 - PACAP, sequence (P41586 21-468): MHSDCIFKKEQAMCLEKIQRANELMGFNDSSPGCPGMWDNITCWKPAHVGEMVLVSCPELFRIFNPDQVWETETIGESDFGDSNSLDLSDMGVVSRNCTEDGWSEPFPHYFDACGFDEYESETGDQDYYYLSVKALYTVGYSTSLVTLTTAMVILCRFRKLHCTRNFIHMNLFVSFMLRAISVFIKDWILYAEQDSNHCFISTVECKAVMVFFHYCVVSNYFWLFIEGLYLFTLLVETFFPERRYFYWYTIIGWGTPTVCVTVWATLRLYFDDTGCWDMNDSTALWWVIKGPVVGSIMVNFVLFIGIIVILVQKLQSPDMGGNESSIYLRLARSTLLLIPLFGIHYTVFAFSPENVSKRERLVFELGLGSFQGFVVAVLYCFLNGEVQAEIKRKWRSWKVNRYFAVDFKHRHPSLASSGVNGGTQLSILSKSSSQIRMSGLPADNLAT
Angiotensin-II AT2, sequence (P50052 whole entry): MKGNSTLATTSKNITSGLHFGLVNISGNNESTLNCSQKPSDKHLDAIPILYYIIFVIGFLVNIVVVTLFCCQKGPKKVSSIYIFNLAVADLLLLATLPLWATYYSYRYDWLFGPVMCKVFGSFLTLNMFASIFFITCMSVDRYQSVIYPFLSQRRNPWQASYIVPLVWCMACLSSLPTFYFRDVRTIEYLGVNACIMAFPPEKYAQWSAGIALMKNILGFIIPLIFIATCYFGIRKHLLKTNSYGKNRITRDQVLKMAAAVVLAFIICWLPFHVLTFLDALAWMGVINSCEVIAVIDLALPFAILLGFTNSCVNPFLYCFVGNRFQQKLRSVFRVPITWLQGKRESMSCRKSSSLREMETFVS
Neuropeptide Y Y2, sequence (P49146 whole entry): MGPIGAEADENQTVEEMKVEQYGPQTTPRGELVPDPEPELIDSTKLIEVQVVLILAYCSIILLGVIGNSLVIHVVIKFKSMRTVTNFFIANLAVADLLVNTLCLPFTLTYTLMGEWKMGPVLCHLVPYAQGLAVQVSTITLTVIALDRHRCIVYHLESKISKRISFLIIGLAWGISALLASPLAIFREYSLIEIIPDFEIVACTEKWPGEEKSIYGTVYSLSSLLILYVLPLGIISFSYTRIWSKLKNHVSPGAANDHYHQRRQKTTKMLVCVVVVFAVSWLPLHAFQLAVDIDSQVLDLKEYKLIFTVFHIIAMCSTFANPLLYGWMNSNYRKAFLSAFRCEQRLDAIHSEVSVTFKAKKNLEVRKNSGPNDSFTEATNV
Adrenergic beta2, sequence (P07550 whole entry): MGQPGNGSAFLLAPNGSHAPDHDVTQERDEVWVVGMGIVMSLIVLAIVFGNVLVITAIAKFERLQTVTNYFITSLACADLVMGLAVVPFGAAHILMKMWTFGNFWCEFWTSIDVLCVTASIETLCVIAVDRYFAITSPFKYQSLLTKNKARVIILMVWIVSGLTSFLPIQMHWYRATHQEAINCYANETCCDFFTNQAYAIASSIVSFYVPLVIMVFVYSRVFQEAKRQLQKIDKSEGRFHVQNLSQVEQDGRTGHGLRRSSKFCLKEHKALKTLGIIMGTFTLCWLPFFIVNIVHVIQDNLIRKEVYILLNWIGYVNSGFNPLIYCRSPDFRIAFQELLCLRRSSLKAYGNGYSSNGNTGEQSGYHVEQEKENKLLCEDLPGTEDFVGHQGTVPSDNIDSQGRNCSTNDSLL
Cholecystokinin CCK1 (CCKA), sequence (P32238 whole entry): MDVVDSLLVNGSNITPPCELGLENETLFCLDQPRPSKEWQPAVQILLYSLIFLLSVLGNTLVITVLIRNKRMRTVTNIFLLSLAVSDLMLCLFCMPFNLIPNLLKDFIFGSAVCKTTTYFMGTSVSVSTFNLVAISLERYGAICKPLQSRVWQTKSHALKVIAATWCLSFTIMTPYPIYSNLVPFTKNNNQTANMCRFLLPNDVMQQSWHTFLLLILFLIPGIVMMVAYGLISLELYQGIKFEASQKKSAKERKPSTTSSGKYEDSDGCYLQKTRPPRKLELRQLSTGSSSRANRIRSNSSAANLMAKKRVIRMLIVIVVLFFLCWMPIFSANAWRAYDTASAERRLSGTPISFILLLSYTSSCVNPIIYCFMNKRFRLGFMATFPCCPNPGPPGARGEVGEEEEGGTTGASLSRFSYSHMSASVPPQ
Prostanoid EP2, sequence (P43116 whole entry): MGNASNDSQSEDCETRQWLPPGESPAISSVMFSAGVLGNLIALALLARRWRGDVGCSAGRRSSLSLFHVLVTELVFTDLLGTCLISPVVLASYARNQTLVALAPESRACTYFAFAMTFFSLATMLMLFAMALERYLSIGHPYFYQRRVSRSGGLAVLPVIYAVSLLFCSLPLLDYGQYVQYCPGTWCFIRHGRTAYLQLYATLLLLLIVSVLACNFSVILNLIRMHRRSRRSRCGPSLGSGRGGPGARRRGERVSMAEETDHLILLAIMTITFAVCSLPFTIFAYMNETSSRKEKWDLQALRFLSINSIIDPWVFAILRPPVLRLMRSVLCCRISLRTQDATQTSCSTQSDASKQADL
Neurokinin NK2, sequence (P21452 whole entry): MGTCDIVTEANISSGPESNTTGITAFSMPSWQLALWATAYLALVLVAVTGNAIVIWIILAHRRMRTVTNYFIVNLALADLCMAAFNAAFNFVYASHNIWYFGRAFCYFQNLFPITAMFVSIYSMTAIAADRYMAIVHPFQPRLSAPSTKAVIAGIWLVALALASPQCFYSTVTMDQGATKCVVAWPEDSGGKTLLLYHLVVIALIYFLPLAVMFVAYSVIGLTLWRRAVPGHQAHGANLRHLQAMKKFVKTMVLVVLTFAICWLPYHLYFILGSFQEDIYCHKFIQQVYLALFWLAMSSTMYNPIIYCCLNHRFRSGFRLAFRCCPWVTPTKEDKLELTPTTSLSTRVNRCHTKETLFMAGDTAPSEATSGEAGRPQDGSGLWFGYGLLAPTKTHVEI
Adrenergic beta1, sequence (P08588 whole entry): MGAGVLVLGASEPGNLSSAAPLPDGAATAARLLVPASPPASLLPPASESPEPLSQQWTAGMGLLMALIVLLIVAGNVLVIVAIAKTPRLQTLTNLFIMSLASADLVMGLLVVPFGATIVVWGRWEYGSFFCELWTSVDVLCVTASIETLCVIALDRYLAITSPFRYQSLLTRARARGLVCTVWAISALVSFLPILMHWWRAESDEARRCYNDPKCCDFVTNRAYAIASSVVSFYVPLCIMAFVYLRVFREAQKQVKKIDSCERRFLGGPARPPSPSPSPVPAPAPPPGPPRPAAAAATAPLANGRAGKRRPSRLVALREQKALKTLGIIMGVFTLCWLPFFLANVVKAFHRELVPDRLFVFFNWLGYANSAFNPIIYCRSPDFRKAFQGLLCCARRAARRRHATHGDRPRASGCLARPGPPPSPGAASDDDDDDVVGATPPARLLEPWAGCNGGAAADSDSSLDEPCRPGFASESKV
Muscarinic M3, sequence (P20309 whole entry): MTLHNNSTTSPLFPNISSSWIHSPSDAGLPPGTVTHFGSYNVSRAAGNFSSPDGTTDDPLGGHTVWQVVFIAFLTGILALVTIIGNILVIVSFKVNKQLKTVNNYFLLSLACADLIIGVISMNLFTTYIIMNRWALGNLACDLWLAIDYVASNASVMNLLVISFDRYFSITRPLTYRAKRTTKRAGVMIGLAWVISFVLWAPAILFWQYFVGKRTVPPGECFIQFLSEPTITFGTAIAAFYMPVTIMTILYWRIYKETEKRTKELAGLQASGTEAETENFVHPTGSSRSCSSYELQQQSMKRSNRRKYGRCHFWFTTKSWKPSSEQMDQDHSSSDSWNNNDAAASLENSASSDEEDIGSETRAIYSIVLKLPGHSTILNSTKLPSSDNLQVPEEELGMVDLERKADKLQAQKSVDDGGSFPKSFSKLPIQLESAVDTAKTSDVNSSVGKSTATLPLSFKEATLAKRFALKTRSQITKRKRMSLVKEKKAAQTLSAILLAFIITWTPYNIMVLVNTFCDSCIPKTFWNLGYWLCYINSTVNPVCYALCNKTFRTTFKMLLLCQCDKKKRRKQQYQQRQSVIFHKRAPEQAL

COc1ccc(CO[C@H]2CC[C@@]3(C)C(=CC[C@H]4[C@@H]5CC[C@H](C(C)=O)[C@@]5(C)CC[C@@H]43)C2)cc1 [AEF0117, 3β-(4-methoxybenzyloxy)pregn-5-en-20-one]
Percent inhibition of control specific binding (Purinergic P2Y): 16%
Percent inhibition of control specific binding (Serotonin 5-HT1B): -15%
inhibition at 10 µM (Adenosine A2A; [6]): -3%
inhibition at 10 µM (Serotonin 5-HT6; [6]): -2%
inhibition at 10 µM (Serotonin 5-HT2A; [6]): 2%
inhibition at 10 µM (Chemokines CXCR2 (IL-8B); [6]): -1%
inhibition at 10 µM (PAC1 - PACAP; [6]): 4%
inhibition at 10 µM [1, 6]: 4%
Percent inhibition of control specific binding (Glutamate PCP): 2%
inhibition at 10 µM (Serotonin 5-HT2C; [6]): 4%
inhibition at 10 µM (Angiotensin-II AT2; [6]): -8%
inhibition at 10 µM (NOP (ORL1); [6]): -7%
inhibition at 10 µM (Dopamine D2S; [6]): -1%
inhibition at 10 µM (Serotonin 5-HT2B; [6]): -15%
Percent inhibition of control specific binding (Potassium channels KV): -5%
inhibition at 10 µM (Muscarinic M3; [6]): -18%
Percent inhibition of control specific binding (Opioid kappa (KOP)): 1%
inhibition at 10 µM (Vasopressin V1a; [6]): 0%
inhibition at 10 µM (Neuropeptide Y Y2; [6]): -22%
inhibition at 10 µM [2, 6]: -19%
Overall effect: increase in depression-related behaviors (mice): No
Percent inhibition of control specific binding [3]: 5%
inhibition at 10 µM (Muscarinic M2; [6]): -3%
inhibition at 10 µM (Endothelin ETB; [6]): 2%
inhibition at 10 µM (Neurokinin NK1; [6]): -18%
inhibition at 10 µM [4, 6]: -21%
inhibition at 10 µM (Adrenergic beta2; [6]): 4%
inhibition at 10 µM (Adrenergic beta1; [6]): 3%
inhibition at 10 µM (Serotonin 5-HT3; [6]): -7%
inhibition at 10 µM [5, 6]: 8%
Percent inhibition of control specific binding (Adrenergic alpha1): -5%
Percent inhibition of control specific binding (BZD (central)): 1%
inhibition at 10 µM (Muscarinic M4; [6]): 0%
Percent inhibition of control specific binding (Adrenergic alpha2): 7%
Percent inhibition of control specific binding (Kinase PDGF): -8%
inhibition at 10 µM (Dopamine D4.4; [6]): -7%
inhibition at 10 µM (Neurokinin NK2; [6]): -28%
inhibition at 10 µM (Prostanoid EP2; [6]): 27%
Percent inhibition of control specific binding (GABA): 9%

CC(=O)[C@H]1CC[C@H]2[C@@H]3CC=C4C[C@@H](O)CC[C@]4(C)[C@H]3CC[C@]12C [pregnenolone, reference compound]
Percent inhibition of control specific binding (Purinergic P2Y): -3%
Percent inhibition of control specific binding (Serotonin 5-HT1B): -28%
Percent inhibition of control specific binding (Adenosine A2A; 10 µM): -1%
Percent inhibition of control specific binding (Serotonin 5-HT6; 10 µM): 5%
Percent inhibition of control specific binding (Serotonin 5-HT2A; 10 µM): -1%
Percent inhibition of control specific binding (Chemokines CXCR2 (IL-8B); 10 µM): -10%
Percent inhibition of control specific binding (PAC1 - PACAP; 10 µM): -25%
Percent inhibition of control specific binding [1]: > 40%
Percent inhibition of control specific binding ([1]; listed as Preg): 42%
Percent inhibition of control specific binding (Glutamate PCP): 5%
Percent inhibition of control specific binding (Serotonin 5-HT2C; 10 µM): -9%
Percent inhibition of control specific binding (Angiotensin-II AT2; 10 µM): -18%
Percent inhibition of control specific binding (NOP (ORL1); 10 µM): 2%
Percent inhibition of control specific binding (Dopamine D2S; 10 µM): 5%
Percent inhibition of control specific binding (Serotonin 5-HT2B; 10 µM): -38%
Percent inhibition of control specific binding (Potassium channels KV): -23%
Percent inhibition of control specific binding (Muscarinic M3; 10 µM): 2%
Percent inhibition of control specific binding (Opioid kappa (KOP)): 38%
Percent inhibition of control specific binding (Vasopressin V1a; 10 µM): 10%
Percent inhibition of control specific binding (Neuropeptide Y Y2; 10 µM): -9%
Percent inhibition of control specific binding ([2]; 10 µM): -30%
Percent inhibition of control specific binding [3]: 23%
Percent inhibition of control specific binding (Muscarinic M2; 10 µM): -4%
Percent inhibition of control specific binding (Endothelin ETB; 10 µM): 4%
Percent inhibition of control specific binding (Neurokinin NK1; 10 µM): 17%
Percent inhibition of control specific binding ([4]; 10 µM): -12%
Percent inhibition of control specific binding (Adrenergic beta2; 10 µM): -5%
Percent inhibition of control specific binding (Adrenergic beta1; 10 µM): 4%
Percent inhibition of control specific binding (Serotonin 5-HT3; 10 µM): 6%
Percent inhibition of control specific binding ([5]; 10 µM): 1%
Percent inhibition of control specific binding (Adrenergic alpha1): 1%
Percent inhibition of control specific binding (BZD (central)): -43%
Percent inhibition of control specific binding (Muscarinic M4; 10 µM): -4%
Percent inhibition of control specific binding (Adrenergic alpha2): -2%
Percent inhibition of control specific binding (Kinase PDGF): -15%
Percent inhibition of control specific binding (Dopamine D4.4; 10 µM): 20%
Percent inhibition of control specific binding (Neurokinin NK2; 10 µM): -1%
Percent inhibition of control specific binding (Prostanoid EP2; 10 µM): 24%
Percent inhibition of control specific binding (GABA): 10%
